Experimental data reported in patent publication US9839701B2, “Aromatic amino acid derivative and positron emission topography (PET) probe using the same” (OSAKA UNIVERSITY, priority 2013, dated 2017).

Key:
human LAT2 = molecular target: T1, human LAT2 (Homo sapiens, UniProt Q9UHI5); test: Inhibition of amino acid uptake in human LAT2 stably expressing cell line; type: cell-based; settings: human LAT2 stably expressing HEK293 cell line; for inhibition at 30 µM: HEK293, compound at 30 μM, read-out: Percentage of inhibition of LAT2-mediated amino acid uptake
T1 construct: expressed in transfected cells
T1 sequence (Q9UHI5 1-535): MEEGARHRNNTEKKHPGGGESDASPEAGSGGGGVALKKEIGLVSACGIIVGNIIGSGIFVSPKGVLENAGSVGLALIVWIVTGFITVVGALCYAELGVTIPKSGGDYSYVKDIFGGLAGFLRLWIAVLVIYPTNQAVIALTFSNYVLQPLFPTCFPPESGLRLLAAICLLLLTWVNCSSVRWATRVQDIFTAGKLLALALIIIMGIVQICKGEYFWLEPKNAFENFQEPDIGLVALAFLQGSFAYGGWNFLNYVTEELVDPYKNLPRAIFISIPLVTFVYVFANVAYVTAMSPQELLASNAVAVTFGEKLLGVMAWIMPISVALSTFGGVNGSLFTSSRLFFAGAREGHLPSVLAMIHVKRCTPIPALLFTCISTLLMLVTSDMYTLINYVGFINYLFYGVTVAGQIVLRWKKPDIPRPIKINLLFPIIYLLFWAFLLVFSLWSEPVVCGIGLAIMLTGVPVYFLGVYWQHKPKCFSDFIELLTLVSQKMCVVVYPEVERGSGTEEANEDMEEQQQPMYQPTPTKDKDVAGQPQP
T1 sequence (P08195 1-529 partner): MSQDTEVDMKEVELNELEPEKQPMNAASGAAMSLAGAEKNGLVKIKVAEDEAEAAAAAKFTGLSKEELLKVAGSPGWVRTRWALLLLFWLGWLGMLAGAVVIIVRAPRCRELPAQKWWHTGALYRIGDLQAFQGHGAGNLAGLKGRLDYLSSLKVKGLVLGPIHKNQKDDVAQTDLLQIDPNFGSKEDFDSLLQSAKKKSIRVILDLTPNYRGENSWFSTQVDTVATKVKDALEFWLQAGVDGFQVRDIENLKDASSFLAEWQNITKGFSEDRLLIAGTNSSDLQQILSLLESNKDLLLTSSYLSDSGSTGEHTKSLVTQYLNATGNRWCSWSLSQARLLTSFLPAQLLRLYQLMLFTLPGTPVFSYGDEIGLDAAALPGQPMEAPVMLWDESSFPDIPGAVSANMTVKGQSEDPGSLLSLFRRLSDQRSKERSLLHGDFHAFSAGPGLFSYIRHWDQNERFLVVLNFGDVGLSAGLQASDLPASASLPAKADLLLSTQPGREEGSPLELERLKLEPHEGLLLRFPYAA
Source text: (§1) A human LAT1 expression vector or a human LAT2 expression vector was transfected using Lipofectamine (registered trademark) 2000 (Invitrogen) into a human embryonic kidney cell line HEK293. G418-resistant HEK293 clones were selected, and among them, a clone showing human LAT1-specific amino acid uptake and a clone showing human LAT2-specific amino acid uptake were selected and established as a human LAT1 stably expressing cell line and a human LAT2 stably expressing cell line, respectively (Khunweeraphong et al. J Pharmacol Sci. 2012 Aug. 18; 119(4): 368-80. Epub 2012 Jul. 31).
(§2) The human LAT1 stably expressing cell line and the human LAT2 stably expressing cell line were seeded at 1.2×10^5 cells/well on separate collagen-coated 24-well plates, and after 48 hours, the cells were washed 3 times with an uptake buffer (Na^2+-free Hank's balanced salt solution (HBSS), pH 7.4) prewarmed at 37° C. Compound 10a, compound 10b or a positive control FAMT (fluoro-α-methyltyrosine) was added at 100 μM, and incubation was performed at 37° C. for 3 minutes. Cells not treated with any of these compounds were used as a negative control. After the incubation, 1 μM of [^14C]L-leucine or [^14C]alanine was added to the wells, [^14C]L-leucine or [^14C]alanine uptake was allowed to proceed for 1 minute, and the cells were washed 3 times with an ice-cold uptake buffer. Subsequently, 500 μL of 0.1 M NaOH was added to each well for cell lysis, 20 μL of the lysate was used for the measurement of the protein concentration, and the remaining lysate was used for the measurement of the intracellular radioactivity. The measured radioactivity was normalized to the protein concentration, and on the assumption that the amino acid uptake activity in the negative control was 100%, the percentage (%) of inhibition of amino acid uptake in the presence of each compound was calculated.
(§3) Using the same cell lines as described in Example 2, the compound of Example 1 was examined for the inhibitory effect on leucine or alanine uptake in the human LAT1 stably expressing cell line and the human LAT2 stably expressing cell line in the same manner as in Example 2. FAMT was used as the positive control. The compound of Example 1 or FAMT was added at 100 μM. Cells not treated with either of these compounds were used as a negative control. On the assumption that the amino acid uptake activity in the negative control (control) was 100%, the percentage (%) of inhibition of amino acid uptake in the presence of FAMT or the compound of Example 1 was calculated. In addition, the cancer cell selectivity was calculated as the ratio of the amino acid uptake activity in the human LAT2 stably expressing cell line relative to that in the human LAT1 stably expressing cell line.
(§4) In another experiment, the cells were treated with the compound of Example 1 at eight different concentrations (0.1, 1, 3, 10, 30, 100, 300 and 1000 μM), and the concentration causing 50% inhibition of amino acid uptake was calculated as the IC50 value.
(§5) A human LAT1 stably expressing cell line and a human LAT2 stably expressing cell line, each of which was the same as described in Example 2, were seeded at 1.2×10^5 cells/well, and after 48 hours, the cells were washed 3 times with an uptake buffer (Na^2+-free Hank's balanced salt solution (HBSS), pH 7.4) prewarmed at 37° C. The test compounds, L-tyrosine or the positive control FAMT (fluoro-α-methyltyrosine) was added at 30 μM, and incubation was performed at 37° C. for 3 minutes. Cells not treated with any of these compounds were used as a negative control. After the incubation, 1 μM of [^14C]L-leucine or [^14C]alanine was added to the wells, [^14C]L-leucine or [^14C]alanine uptake was allowed to proceed for 1 minute, and the cells were washed 3 times with an ice-cold uptake buffer. […]

human LAT1 = molecular target: T2, human LAT1 (Homo sapiens, UniProt Q01650); test: Inhibition of amino acid uptake in human LAT1 stably expressing cell line; type: cell-based
T2 construct: expressed in transfected cells
T2 sequence (Q01650 whole entry, one chain of several): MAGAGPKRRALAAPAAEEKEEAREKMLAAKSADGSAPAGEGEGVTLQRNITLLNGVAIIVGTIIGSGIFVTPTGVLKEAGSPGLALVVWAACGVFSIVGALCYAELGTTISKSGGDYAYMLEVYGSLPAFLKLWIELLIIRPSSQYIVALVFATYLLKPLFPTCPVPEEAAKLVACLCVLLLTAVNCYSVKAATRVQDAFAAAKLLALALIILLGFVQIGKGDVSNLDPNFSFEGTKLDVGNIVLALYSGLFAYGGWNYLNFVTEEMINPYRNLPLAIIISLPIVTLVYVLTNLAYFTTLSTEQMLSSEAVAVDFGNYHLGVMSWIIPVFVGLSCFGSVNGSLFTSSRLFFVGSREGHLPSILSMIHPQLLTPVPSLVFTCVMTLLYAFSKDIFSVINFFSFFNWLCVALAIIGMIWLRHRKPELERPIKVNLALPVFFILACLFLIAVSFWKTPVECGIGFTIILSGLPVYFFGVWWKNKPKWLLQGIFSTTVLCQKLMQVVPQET
Source text: as §1, §2, §3, §4, §5

[1] = compound at 30 μM, human LAT1 stably expressing HEK293 cell line, 30 µM

Molecule | Cancer cell selectivity (amino acid uptake activity in human LAT2 line / in human LAT1 line) (human LAT1; compound at 30 μM) | Percentage of inhibition of LAT1-mediated amino acid uptake (human LAT1; [1]) [%] | Percentage of inhibition of LAT2-mediated amino acid uptake (human LAT2; compound at 30 μM, 30 µM) [%] | other results
NC(Cc1cc(OCCCCF)ccc1I)C(=O)O (single isomer, unassigned) [compound 25a, 2-amino-3-(5-(4-fluorobutoxy)-2-iodophenyl)propanoic acid] | 1.49 | 37.7 | – | inhibition at 30 µM (human LAT2): 7.3%
N[C@@H](Cc1ccc(O)cc1)C(=O)O [L-Tyr, L-tyrosine, reference compound] | 1.16 | – | – | inhibition at 30 µM (human LAT2): 33.1%; inhibition at 30 µM (human LAT1; HEK293, compound at 30 μM, human LAT1 stably expressing HEK293 cell line, read-out: Percentage of inhibition of LAT1-mediated amino acid uptake): 42.3%
fluoro-α-methyltyrosine [FAMT, reference compound] | 1.5 | – | – | Percentage of inhibition of LAT2-mediated amino acid uptake (human LAT2; compound at 30 μM): 16.3%; Percentage of inhibition of LAT2-mediated amino acid uptake (human LAT2; compound at 100 μM, 1 μM [14C]L-leucine or [14C]alanine, 1 min uptake): 28.3%; Percentage of inhibition of LAT1-mediated amino acid uptake (human LAT1; compound at 30 μM, human LAT1 stably expressing HEK293 cell line): 44.2%; Percentage of inhibition of LAT1-mediated amino acid uptake (human LAT1; compound at 100 μM, human LAT1 stably expressing HEK293 cell line, 1 μM [14C]L-leucine or [14C]alanine, 1 min uptake): 52.4%
NC(Cc1cc(OCCF)ccc1Br)C(=O)O (single isomer, unassigned) [compound 24a, 2-amino-3-(2-bromo-5-(2-fluoroethoxy)phenyl)propanoic acid] | 1.12 | 11.6 | 0.8 | –
NC(Cc1cc(OCCOCCF)ccc1I)C(=O)O (single isomer, unassigned) [compound 27 (R), 2-amino-3-(5-(2-(2-fluoroethoxy)ethoxy)-2-iodophenyl)propanoic acid] | 1.39 | 35.4 | – | inhibition at 30 µM (human LAT2): 10.6%
NC(Cc1cc(OCCCCF)ccc1I)C(=O)O (single isomer, unassigned) [compound 25b, 2-amino-3-(5-(4-fluorobutoxy)-2-iodophenyl)propanoic acid] | 15.13 | 94.1 | 11.3 | –
NC(Cc1cc(OCCF)ccc1C1CC1)C(=O)O (single isomer, unassigned) [compound 23a, 2-amino-3-(2-cyclopropyl-5-(2-fluoroethoxy)phenyl)propanoic acid] | 1.41 | 37.5 | 11.8 | –
NC(Cc1cc(OCCF)ccc1Br)C(=O)O (single isomer, unassigned) [compound 24b, 2-amino-3-(2-bromo-5-(2-fluoroethoxy)phenyl)propanoic acid] | 4.42 | 85.1 | 34.3 | –
NC(Cc1cc(OCCF)ccc1C1CC1)C(=O)O (single isomer, unassigned) [compound 23b, 2-amino-3-(2-cyclopropyl-5-(2-fluoroethoxy)phenyl)propanoic acid] | 11.2 | 94.5 | 39.9 | –
NC(Cc1cc(OCCF)ccc1I)C(=O)O (single isomer, unassigned) [compound 10a, 2-amino-3-(5-(2-fluoroethoxy)-2-iodophenyl)propanoic acid] | 1.44 | 33.8 | 4.7 | Cancer cell selectivity (amino acid uptake activity in human LAT2 line / in human LAT1 line) (human LAT1; compound at 100 μM): higher than that in the human LAT2 stably expressing cell line
NC(Cc1cc(OCCF)ccc1I)C(=O)O (single isomer, unassigned) [compound 10b, 2-amino-3-(5-(2-fluoroethoxy)-2-iodophenyl)propanoic acid] | 8.59 | 91.2 | 24.5 | Cancer cell selectivity (amino acid uptake activity in human LAT2 line / in human LAT1 line) (human LAT1; compound at 100 μM): higher than that in the human LAT2 stably expressing cell line
NC(Cc1cc(OCCOCCF)ccc1I)C(=O)O (single isomer, unassigned) [compound 27 (S), 2-amino-3-(5-(2-(2-fluoroethoxy)ethoxy)-2-iodophenyl)propanoic acid] | 9.04 | 89.5 | 6.5 | –
